Reference: patent US8685970B2, “Quinolines and related analogs as sirtuin modulators” (GlaxoSmithKline, LLC, priority 2008, dated 2014)

Molecular target: T1, SIRT1 (Homo sapiens, UniProt Q96EB6)
T1 sequence (Q96EB6 1-747): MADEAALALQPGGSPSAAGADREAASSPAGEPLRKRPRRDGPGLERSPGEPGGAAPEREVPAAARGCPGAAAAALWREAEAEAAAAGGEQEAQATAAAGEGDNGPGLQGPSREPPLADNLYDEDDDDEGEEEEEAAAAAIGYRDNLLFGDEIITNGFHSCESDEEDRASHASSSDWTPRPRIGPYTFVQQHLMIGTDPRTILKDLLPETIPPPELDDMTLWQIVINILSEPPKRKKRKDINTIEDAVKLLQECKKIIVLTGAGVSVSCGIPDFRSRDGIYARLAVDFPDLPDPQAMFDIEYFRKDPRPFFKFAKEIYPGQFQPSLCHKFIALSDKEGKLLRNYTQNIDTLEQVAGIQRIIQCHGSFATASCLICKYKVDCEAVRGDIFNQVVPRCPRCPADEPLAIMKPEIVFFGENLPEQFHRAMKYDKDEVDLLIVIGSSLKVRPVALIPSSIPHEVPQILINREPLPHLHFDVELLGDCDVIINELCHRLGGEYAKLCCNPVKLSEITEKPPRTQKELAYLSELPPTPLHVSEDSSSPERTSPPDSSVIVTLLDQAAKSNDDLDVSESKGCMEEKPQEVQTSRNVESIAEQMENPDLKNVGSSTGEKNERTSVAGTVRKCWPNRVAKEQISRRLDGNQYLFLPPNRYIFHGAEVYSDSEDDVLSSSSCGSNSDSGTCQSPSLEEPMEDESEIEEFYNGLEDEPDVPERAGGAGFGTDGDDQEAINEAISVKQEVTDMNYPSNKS
Experiment: Mass spectrometry based SIRT1 deacetylation assay (activation)
Assay type: biochemical
Settings: 10 nM SIRT1, 0.5 μM peptide substrate, 120 μM βNAD+, 25 min at 25° C.
Procedure, shortened: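 Recombinant N-His-tagged SIRT1 (E. coli BL21(DE3)), 10 nM, incubated 25 min at 25 °C with 0.5 μM biotin/5TMR-labelled acetyl-p53-derived 20-mer peptide and 120 μM βNAD+ in Tris-acetate pH 8 buffer with DTT and BSA. Formic acid stop; MS quantifies acetylated vs deacetylated peptide. EC1.5 = concentration giving 150% activation versus DMSO.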

| SMILES | % Fold Act. (percent maximum fold activation) | EC1.5 (concentration of test compound that results in 150% activation of SIRT1) |
| --- | --- | --- |
| O=C(Nc1cccc2ccc(-c3ccc(F)nc3)nc12)c1cscn1 [Compound 176] | A (Fold activation >200%) | A (EC1.5<1.0 uM) |
| O=C(Nc1nc(CN2CCOCC2)cs1)c1cccc2ccc(-c3cccc(C(F)(F)F)c3)nc12 [Compound 177] | A (Fold activation >200%) | A (EC1.5<1.0 uM) |
| O=C(Nc1nc(CN2CCOCC2)cs1)c1cccc2ccc(-c3cccc(OC(F)(F)F)c3)nc12 [Compound 178] | A (Fold activation >200%) | A (EC1.5<1.0 uM) |
| O=C(Nc1nccs1)c1cccc2ccc(-c3ccnc(N4CCC4)c3)nc12 [Compound 179] | A (Fold activation >200%) | A (EC1.5<1.0 uM) |
| O=C(Nc1nccs1)c1cccc2ccc(-c3cccnc3)nc12 [Compound 180] | B (Fold Activation <200%) | A (EC1.5<1.0 uM) |
| O=C(Nc1cnccn1)c1cccc2ccc(-c3cccnc3)nc12 [Compound 181] |  | C (EC1.5>25 uM) |
| O=C(Nc1ccccn1)c1cccc2ccc(-c3cccnc3)nc12 [Compound 182] | B (Fold Activation <200%) | A (EC1.5<1.0 uM) |
| O=C(Nc1cccnc1)c1cccc2ccc(-c3cccnc3)nc12 [Compound 183] |  | C (EC1.5>25 uM) |
| O=C(Nc1ccccn1)c1cccc2cc(C(F)(F)F)c(-c3ccccc3)nc12 [Compound 184] |  | C (EC1.5>25 uM) |
| O=C(Nc1cccc2ccc(-c3cccc(O)c3)nc12)c1cscn1 [Compound 185] | B (Fold Activation <200%) | B (EC1.5 1-25 uM) |
| O=C(Nc1cccc2ccc(-c3ccc(O)cc3)nc12)c1cscn1 [Compound 186] | A (Fold activation >200%) | B (EC1.5 1-25 uM) |
| O=C(Nc1cccc2ccc(-c3cccc(C(F)(F)F)c3)nc12)c1cccc(OC[C@@H](O)CO)c1 [Compound 187] | A (Fold activation >200%) | A (EC1.5<1.0 uM) |
| O=C(Nc1ncc(CN2CCOCC2)s1)c1cccc2ccc(-c3cccc(C(F)(F)F)c3)nc12 [Compound 188] | A (Fold activation >200%) | A (EC1.5<1.0 uM) |
| O=C(Nc1ncc(CN2CCOCC2)s1)c1cccc2ccc(-c3cccc(OC(F)(F)F)c3)nc12 [Compound 189] | A (Fold activation >200%) | A (EC1.5<1.0 uM) |
| O=C(Nc1nc(CN2CCOCC2)cs1)c1cccc2ccc(-c3cccnc3)nc12 [Compound 190] | A (Fold activation >200%) | A (EC1.5<1.0 uM) |
| O=C(Nc1ncc(CN2CCOCC2)s1)c1cccc2ccc(-c3cccnc3)nc12 [Compound 191] | A (Fold activation >200%) | B (EC1.5 1-25 uM) |
| O=C(Nc1nccs1)c1cccc2cc(C(F)(F)F)c(-c3ccccc3)nc12 [Compound 192] |  | C (EC1.5>25 uM) |
| O=C(Nc1cccnc1)c1cccc2cc(C(F)(F)F)c(-c3ccccc3)nc12 [Compound 193] |  | C (EC1.5>25 uM) |
| O=C(Nc1ncnc2ccc(-c3cccc(OC(F)(F)F)c3)nc12)c1ccccn1 [Compound 194] | A (Fold activation >200%) | A (EC1.5<1.0 uM) |
| O=C(Nc1cccc2ccc(-c3cccc(C(F)(F)F)c3)nc12)c1cocn1 [Compound 195] | B (Fold Activation <200%) | A (EC1.5<1.0 uM) |
| Cc1ncccc1-c1ccc2cccc(NC(=O)c3cscn3)c2n1 [Compound 196] | A (Fold activation >200%) | A (EC1.5<1.0 uM) |

| SMILES | % Fold Act. (percent maximum fold activation) | EC1.5 (concentration of test compound that results in 150% activation of SIRT1) |
| --- | --- | --- |
| Cc1cc(-c2ccc3cccc(NC(=O)c4cscn4)c3n2)ccn1 [Compound 197] | A (Fold activation >200%) | A (EC1.5<1.0 uM) |
| Cc1ccc(-c2ccc3cccc(NC(=O)c4cscn4)c3n2)cn1 [Compound 198] | A (Fold activation >200%) | A (EC1.5<1.0 uM) |
| O=C(Nc1cccc2ccc(-c3cncc(F)c3)nc12)c1cscn1 [Compound 199] |  | C (EC1.5>25 uM) |
| O=C(Nc1cccc2ccc(-c3cccc(N4CCOCC4)c3)nc12)c1cscn1 [Compound 200] | A (Fold activation >200%) | A (EC1.5<1.0 uM) |
| O=C(Nc1cccc2ccc(-c3cccc(N4CCCC4)c3)nc12)c1cscn1 [Compound 201] |  | C (EC1.5>25 uM) |
| CN1CCOc2cc(-c3ccc4cccc(NC(=O)c5cscn5)c4n3)ccc21 [Compound 202] | A (Fold activation >200%) | A (EC1.5<1.0 uM) |
| O=C(Nc1cccc2ccc(-c3cccc(C(F)(F)F)c3)nc12)c1cccc(OC[C@@H](O)CO)n1 [Compound 203] | A (Fold activation >200%) | A (EC1.5<1.0 uM) |
| O=C(Nc1cccc2ccc(-c3cccc(C(F)(F)F)c3)nc12)c1cccs1 [Compound 204] | B (Fold Activation <200%) | B (EC1.5 1-25 uM) |
| COc1cccc(C(=O)Nc2cccc3ccc(-c4cccc(C(F)(F)F)c4)nc23)c1 [Compound 205] | B (Fold Activation <200%) | B (EC1.5 1-25 uM) |
| O=C(Nc1cccc2ccc(-c3cccc(C(F)(F)F)c3)nc12)c1csc(-c2ccccc2)n1 [Compound 206] |  | C (EC1.5>25 uM) |
| O=C(Nc1cccc(OC[C@@H](O)CO)c1)c1cccc2ccc(-c3cccc(C(F)(F)F)c3)nc12 [Compound 207] | A (Fold activation >200%) | A (EC1.5<1.0 uM) |
| O=C(Nc1ccncn1)c1cccc2ccc(-c3cccnc3)nc12 [Compound 208] |  | C (EC1.5>25 uM) |
| O=C(Nc1nccs1)c1cccc2ccc(-c3ccnc(N4CCOCC4)c3)nc12 [Compound 209] | B (Fold Activation <200%) | A (EC1.5<1.0 uM) |
| O=C(Nc1ncnc2ccc(-c3cccc(OC(F)(F)F)c3)nc12)c1cccnc1 [Compound 210] | A (Fold activation >200%) | B (EC1.5 1-25 uM) |
| O=C(Nc1ncnc2ccc(-c3cccc(OC(F)(F)F)c3)nc12)c1cccc(C(F)(F)F)c1 [Compound 211] |  | C (EC1.5>25 uM) |
| Cc1ccc(-c2ccc3cccc(NC(=O)c4cscn4)c3n2)cc1 [Compound 212] | B (Fold Activation <200%) | B (EC1.5 1-25 uM) |
| Cc1ccc(-c2ccc3cccc(NC(=O)c4cscn4)c3n2)cc1F [Compound 213] | B (Fold Activation <200%) | A (EC1.5<1.0 uM) |
| Cc1cncc(-c2ccc3cccc(NC(=O)c4cscn4)c3n2)c1 [Compound 214] | A (Fold activation >200%) | A (EC1.5<1.0 uM) |
| CN(C)c1cccc(C(=O)Nc2cccc3ccc(-c4cccc(C(F)(F)F)c4)nc23)c1 [Compound 215] | B (Fold Activation <200%) | A (EC1.5<1.0 uM) |
| CN1CCN(Cc2cccc(C(=O)Nc3cccc4ccc(-c5cccc(C(F)(F)F)c5)nc34)c2)CC1 [Compound 216] | A (Fold activation >200%) | A (EC1.5<1.0 uM) |
